According to US20110046482A1, “METHODS FOR REDUCING TOXICITIES ASSOCIATED WITH MEDICAL PROCEDURES EMPLOYING RADIOGRAPHIC CONTRAST AGENTS” (OREGON HEALTH & SCIENCE UNIVERSITY, priority 2006, published 2011):

Experiments:
[1] = N-acetylcysteine dose escalation, IV at time 0, 4 and 8 hours, followed for two weeks
Protocol: Rats were given NAC IV at time 0, 4 hours, and 8 hours and were then followed for two weeks.

[2] = Effect of route of administration on biodistribution of radiolabelled NAC; type: in vivo; settings: rats
Protocol: Radiolabelled NAC in combination with unlabeled NAC (140 mg/kg) was administered to rats with the following routes of infusion: IV; IA into the right carotid artery for brain infusion; aortic infusion (IA infusion via the left external carotid artery with left internal artery occlusion) to avoid brain infusion; and IA (right carotid) with osmotic Blood Brain Barrier Disruption (BBBD) to maximize delivery to the brain.

[3] = Blood/serum levels of NAC and thiols by HPLC after IV or PO NAC; type: in vivo
Protocol: NAC is known to enhance de novo glutathione synthesis, and may also impact levels of other thiols. […] In contrast to the IV results, the group given NAC 1200 mg/kg by the PO route had very low levels of serum NAC (0.12±0.12) at 15 min or 60 min after infusion.

[4] = Clearance of NAC, blood thiol concentration every 15 minutes by colorimetric kit; type: in vivo; settings: rat, intravenous, other: IA into the descending aorta, IV or IA into the descending aorta, 140, 400, 1000 and 1200 mg/kg, all doses
Protocol: NAC was administered either IV or IA into the descending aorta, and blood samples were assessed for thiol concentration every 15 minutes using a colorimetric kit. The NAC doses tested were 140, 400, 1000, and 1200 mg/kg.

[5] = system: cellular apoptosis proteins; test: NAC-mediated inhibition of cisplatin-induced apoptosis, Western Blot analysis; type: cell-based
Protocol: Thus, the ability of NAC to modulate cellular apoptosis proteins was evaluated by Western Blot analysis.

[6] = system: cisplatin-induced nephrotoxicity; test: Cisplatin (10 mg/kg IP) nephrotoxicity model, BUN, creatinine and weight 3 days after treatment; type: in vivo; settings: rats
Protocol: There are few animal models of contrast-induced nephropathy, and the reported models are not easily reproducible.
Rats were tested for renal toxicity 3 days after treatment by measuring serum concentrations of BUN and creatinine (CR).

[7] = system: cumulative cisplatin nephrotoxicity; test: Multiple low dose cisplatin nephrotoxicity model; type: in vivo; settings: rats
cisplatin nephrotoxicity = test: Cisplatin nephrotoxicity after NAC IV, PO or IA in the descending aorta; type: in vivo; settings: rats
Protocol: IV NAC was nephroprotective at a dose of 400 mg/kg but not at a lower dose of 50 mg/kg.

[8] = cisplatin 10 mg/kg IP + NAC 400 mg/kg IP
[9] = cisplatin 10 mg/kg IP + NAC 400 mg/kg PO

Question: Which safety/tolerability ([1]; rat, in vivo, iv, 1200 mg/kg) does the source give for CC(=O)N[C@@H](CS)C(=O)O [NAC, N-acetylcysteine] here?
Answer: safe and well-tolerated

Question: What about the “weight loss and signs of toxicity” value ([1]; rat, in vivo, iv, 1200 mg/kg) of the same molecule?
Answer: no weight loss and no signs of toxicity

Question: And the tolerability of infusions ([1]; rat, in vivo, iv, 1500 mg/kg)?
Answer: tolerated the infusions well

Question: What about the “loss of body weight” value ([1]; rats, NAC IV 1500 mg/kg×3 (0, 4, 8 hours), within 2-3 days of infusion) of the same molecule?
Answer: 5%-10%

Question: And the radiolabel in brain ([2]; NAC 140 mg/kg, IA right carotid artery)?
Answer: high levels of radiolabel in the right cerebral hemisphere

Question: What about the “radiolabel in right cerebral hemisphere relative to IA without BBBD” value ([2]; NAC 140 mg/kg, IA right carotid with osmotic BBBD) of the same molecule?
Answer: doubled

Question: And the “brain delivery of NAC” value ([2]; NAC 140 mg/kg, aortic infusion)?
Answer: negligible levels

Question: What about the delivery to kidney ([2]; NAC 140 mg/kg, aortic infusion) of the same molecule?
Answer: increased systemic delivery to kidney

Question: And the “amount of NAC found in the brain” value ([2]; radiolabelled + unlabeled NAC 140 mg/kg, IV)?
Answer: negligible amounts

Question: What about the “blood level of NAC (mean)” value ([3]; IV 100 mg/kg) of the same molecule?
Answer: 380 ± 160 µM

Question: And the “blood level of NAC (mean)” value ([3]; IV 400 mg/kg)?
Answer: 2190 ± 190 µM

Question: What about the “blood level of NAC (mean)” value ([3]; IV 1200 mg/kg) of the same molecule?
Answer: 6220 ± 180 µM

Question: What about the “serum concentration of metabolite oxidized NAC relative to NAC alone” value ([3]; IV, 15 min after administration) of the same molecule?
Answer: approximately double

Question: And the “serum NAC level” value ([3]; PO 1200 mg/kg, at 15 min or 60 min after infusion)?
Answer: 0.12 ± 0.12 mM

Question: What about the half-life [4] of the same molecule?
Answer: < 15 min

Question: And the “protection against cisplatin cytotoxicity” value ([5]; NAC 8 hours after cisplatin)?
Answer: minimal

Question: And the “effect on cytotoxic effects of cisplatin (apoptosis proteins)” value ([5]; NAC added concurrent with cisplatin or up to 2 hours after)?
Answer: reversed the cytotoxic effects of cisplatin

Question: What about the “protection against cisplatin cytotoxicity” value ([5]; NAC delayed more than 2 hours) of the same molecule?
Answer: protection was reduced

Question: And the BUN [6, 8]?
Answer: 131.8 ± 8.2 mg/dL

Question: What about the “CR (creatinine)” value [6, 8] of the same molecule?
Answer: 2.3±0.38

Question: And the BUN ([6]; cisplatin 10 mg/kg IP + NAC 400 mg/kg IV, p<0.0001)?
Answer: 26.33 ± 6.76 mg/dL

Question: And the “CR (creatinine)” value ([6]; cisplatin 10 mg/kg IP + NAC 400 mg/kg IV, p<0.0013)?
Answer: 0.47±0.15

Question: And the BUN [6, 9]?
Answer: 123.3 ± 8.2 mg/dL

Question: What about the “CR (creatinine)” value [6, 9] of the same molecule?
Answer: 1.77±0.21

Question: What about the “percent weight loss over the test period versus the other groups” value ([6]; cisplatin + IV NAC, p<0.0001) of the same molecule?
Answer: significantly lower percent weight loss

Question: And the protection against nephrotoxicity ([7]; NAC 800 mg/kg IP 30 minutes before each cisplatin treatment)?
Answer: no protective effect

Question: What about the protection against nephrotoxicity ([7]; NAC 800 mg/kg IV 30 minutes before each cisplatin treatment) of the same molecule?
Answer: protective against the cumulative nephrotoxicity

Question: What about the nephroprotection (cisplatin nephrotoxicity; NAC 50 mg/kg IA in the descending aorta) of the same molecule?
Answer: significant nephroprotection

Question: And the nephroprotection (cisplatin nephrotoxicity; NAC 50 mg/kg IV)?
Answer: not nephroprotective

Question: What about the nephroprotection (cisplatin nephrotoxicity; NAC 400 mg/kg IV) of the same molecule?
Answer: nephroprotective

Question: And the “protection against cisplatin nephrotoxicity” value (cisplatin nephrotoxicity; NAC 400 mg/kg PO via nasogastric tube, cisplatin 10 mg/m^2)?
Answer: not protective

Question: And the “time to renal failure” value (cisplatin nephrotoxicity; NAC 400 mg/kg PO, cisplatin 10 mg/m^2)?
Answer: ≤ 3 days
